Assay results published in PMC4965013, “Open Source Drug Discovery with the Malaria Box Compound Collection for Neglected Diseases and Beyond” (PLoS Pathogens, 2016).

What was measured:
P. falciparum = test: EC50 listed in S2 Table Metabolomics (used to set the concentration tested); type: cell-based; details: Plasmodium falciparum; EC50 used for Factor_XEC50 in metabolomics; read-out: EC50_nM
[1] = system: P. falciparum 3D7 trophozoites; test: Metabolomic fingerprint profiling LC-MS; type: cell-based, Plasmodium falciparum; set-up: UDP-D-glucose / ADP-D-glucose: unit not given here; details: for Acetyllysine / N-acetyl-L-ornithine / N-carbamoyl-L-aspartate / NADPH / dAMP / dCMP / dTDP / dTMP / dTTP / dihydroorotate / orotate / DLH / DLS/SDL/SID / PD / PEE / PVNF / 3-phosphoglycerate / ADP-D-glucose / ATP / CDP / D-sedoheptulose-1/7-phosphate / FAD / GMP / NAD+ / NADP+ / Octoluse Bisphosphate / Pyroglutamic acid / UDP-D-glucose / UDP-D-glucuronate / UDP-N-acetyl-glucosamine / UDP / UMP / UTP / a-ketoglutarate / citrate/isocitrate / cytidine / dATP / dGMP/AMP / fumarate / glucose-1/6-phosphate / glycerate / guanine / guanosine / hypoxanthine / indole / inosine / nicotinate / ornithine / phosphoenolpyruvate / pyruvate / ribose-phosphate / sarcosine/alanine / sn-glycerol-3-phosphate / succinate/methylmalonic acid / uridine / xanthosine: S2 Table Metabolomics; for Acetyllysine: metabolite Acetyllysine; for N-acetyl-L-ornithine: metabolite N-acetyl-L-ornithine; for N-carbamoyl-L-aspartate: metabolite N-carbamoyl-L-aspartate; for NADPH: metabolite NADPH; for dAMP: metabolite dAMP; for dCMP: metabolite dCMP; for dTDP: metabolite dTDP; for dTMP: metabolite dTMP; for dTTP: metabolite dTTP; for dihydroorotate: metabolite dihydroorotate; for orotate: metabolite orotate; for DLH: peptide DLH; for DLS/SDL/SID: peptide DLS/SDL/SID; for PD: peptide PD; for PEE: peptide PEE; for PVNF: peptide PVNF; for 3-phosphoglycerate: metabolite 3-phosphoglycerate; for ADP-D-glucose: metabolite ADP-D-glucose; for ATP: metabolite ATP; for CDP: metabolite CDP; for CDP / D-sedoheptulose-1/7-phosphate / GMP / Octoluse Bisphosphate / UDP / UMP / UTP / citrate/isocitrate / dGMP/AMP / fumarate / glucose-1/6-phosphate / glycerate / guanine / guanosine / inosine / pyruvate / sarcosine/alanine / succinate/methylmalonic acid / uridine / xanthosine: change in metabolite level after compound treatment; for D-sedoheptulose-1/7-phosphate: metabolite D-sedoheptulose-1/7-phosphate; for FAD: metabolite FAD; for GMP: metabolite GMP; for NAD+: metabolite NAD+; for NADP+: metabolite NADP+; for Octoluse Bisphosphate: metabolite Octoluse Bisphosphate; for Pyroglutamic acid: metabolite Pyroglutamic acid; for UDP-D-glucose: metabolite UDP-D-glucose; for UDP-D-glucuronate: metabolite UDP-D-glucuronate; for UDP-N-acetyl-glucosamine: metabolite UDP-N-acetyl-glucosamine; for UDP: metabolite UDP; for UMP: metabolite UMP; for UTP: metabolite UTP; for a-ketoglutarate: metabolite a-ketoglutarate; for citrate/isocitrate: metabolite citrate/isocitrate; for cytidine: metabolite cytidine; for dATP: metabolite dATP; for dGMP/AMP: metabolite dGMP/AMP; for fumarate: metabolite fumarate; for glucose-1/6-phosphate: metabolite glucose-1/6-phosphate; for glycerate: metabolite glycerate; for guanine: metabolite guanine; for guanosine: metabolite guanosine; for hypoxanthine: metabolite hypoxanthine; for indole: metabolite indole; for inosine: metabolite inosine; for 2_3-Diphosphoglyceric acid / 4-phosphopantothenate / 6-phospho-D-gluconate / FMN / IMP / Pyrophosphate / Sedoheptoluse bisphosphate / cyclic-AMP / glutathione disulfide / lactate / myo-inositol: metabolite level change after treatment; for nicotinate: metabolite nicotinate; for ornithine: metabolite ornithine; for phosphoenolpyruvate: metabolite phosphoenolpyruvate; for pyruvate: metabolite pyruvate; for ribose-phosphate: metabolite ribose-phosphate; for sarcosine/alanine: metabolite sarcosine/alanine; for sn-glycerol-3-phosphate: metabolite sn-glycerol-3-phosphate; for succinate/methylmalonic acid: metabolite succinate/methylmalonic acid; for uridine: metabolite uridine; for xanthosine: metabolite xanthosine

`CCOC(=O)c1cnc2ccc(CC)cc2c1O` [MMV007116] gave an EC50 (P. falciparum) of 351 nM, an Acetyllysine [1] of -0.1012 and a N-acetyl-L-ornithine [1] of 0.0981. It also gave a N-carbamoyl-L-aspartate [1] of 2.971, an NADPH [1] of -0.5029 and a dAMP [1] of -0.4219. The dCMP [1] was 0.4317, the dTDP [1] was -1.171 and the dTMP [1] was -0.8513. For the same compound, the dTTP [1] was -0.7029, the dihydroorotate [1] was 3.788 and the orotate [1] was -1.509. For the same compound, the DLH [1] was 0.2963, the DLS/SDL/SID [1] was 0.1623 and the PD [1] was 0.3262. The PEE [1] was 0.1615, the PVNF [1] was 0.2601 and the 3-phosphoglycerate [1] was -0.1794. The ADP-D-glucose [1] was 0.1742, the ATP [1] was 0.4661 and the CDP [1] was -0.7049. It also gave a D-sedoheptulose-1/7-phosphate [1] of -0.06275, an FAD [1] of 0.2601 and a GMP [1] of -0.15. The “NAD+” value [1] was 0.1229, the “NADP+” value [1] was 0.2138 and the “Octoluse Bisphosphate” value [1] was 0.1604. It also gave a Pyroglutamic acid [1] of 0.5147, a UDP-D-glucose [1] of 0.04103 and a UDP-D-glucuronate [1] of 0.1753. The UDP-N-acetyl-glucosamine [1] was -0.1032, the UDP [1] was -1.173 and the UMP [1] was -0.7684. For the same compound, the UTP [1] was -0.9344, the a-ketoglutarate [1] was -0.7057 and the citrate/isocitrate [1] was -0.7167. The cytidine [1] was 0.3209, the dATP [1] was 0.325 and the dGMP/AMP [1] was -0.3675. It also gave a fumarate [1] of 0.4728, a glucose-1/6-phosphate [1] of 0.07021 and a glycerate [1] of -0.09904. It also gave a guanine [1] of -0.05466, a guanosine [1] of -0.14 and a hypoxanthine [1] of -0.2065. It also gave an indole [1] of -0.3037, an inosine [1] of -0.2408 and a 2_3-Diphosphoglyceric acid [1] of 0.3408. The 4-phosphopantothenate [1] was -0.2638, the 6-phospho-D-gluconate [1] was 0.07683 and the FMN [1] was -0.08712. It also gave an IMP [1] of -0.2111, a Pyrophosphate [1] of 0.42 and a Sedoheptoluse bisphosphate [1] of 0.05124. The cyclic-AMP [1] was 0.01532, the glutathione disulfide [1] was 0.02122 and the lactate [1] was -0.5604. The myo-inositol [1] was -0.5893, the nicotinate [1] was -0.6598 and the ornithine [1] was -0.07172. The phosphoenolpyruvate [1] was -0.09558, the pyruvate [1] was -0.6031 and the ribose-phosphate [1] was 0.2426. It also gave a sarcosine/alanine [1] of -0.04206, a sn-glycerol-3-phosphate [1] of 0.1096 and a succinate/methylmalonic acid [1] of 0.07837. It also gave a uridine [1] of -1.178 and a xanthosine [1] of 0.04101.
`COc1ccc(-n2ccnc2SCC(=O)Nc2cc(C)ccc2C)c(OC)c1` [MMV019258] gave an EC50 (P. falciparum) of 170 nM, an Acetyllysine [1] of -0.6249 and a N-acetyl-L-ornithine [1] of -0.6242. It also gave a N-carbamoyl-L-aspartate [1] of 3.802, an NADPH [1] of -0.4851 and a dAMP [1] of -1.834. The dCMP [1] was 0.07117, the dTDP [1] was -1.878 and the dTMP [1] was -1.688. It also gave a dTTP [1] of -1.338, a dihydroorotate [1] of 5.204 and an orotate [1] of -0.1277. It also gave a DLH [1] of -0.04693, a DLS/SDL/SID [1] of -0.2869 and a PD [1] of -0.04264. For the same compound, the PEE [1] was -0.4454, the PVNF [1] was -2.048 and the 3-phosphoglycerate [1] was 0.6242. It also gave an ADP-D-glucose [1] of 0.3573, an ATP [1] of 0.2564 and a CDP [1] of -1.841. It also gave a D-sedoheptulose-1/7-phosphate [1] of -1.029, an FAD [1] of 0.0674 and a GMP [1] of 1.676. The “NAD+” value [1] was 0.1657, the “NADP+” value [1] was 0.1196 and the “Octoluse Bisphosphate” value [1] was -0.03706. The Pyroglutamic acid [1] was 0.9996, the UDP-D-glucose [1] was 0.07144 and the UDP-D-glucuronate [1] was -0.1808. It also gave a UDP-N-acetyl-glucosamine [1] of -0.2701, a UDP [1] of -2.466 and a UMP [1] of -0.6353. It also gave a UTP [1] of -1.944, an a-ketoglutarate [1] of 0.866 and a citrate/isocitrate [1] of 0.4908. For the same compound, the cytidine [1] was 0.5413, the dATP [1] was 0.5274 and the dGMP/AMP [1] was -0.3361. For the same compound, the fumarate [1] was 0.3957, the glucose-1/6-phosphate [1] was 0.221 and the glycerate [1] was 0.7468. For the same compound, the guanine [1] was 0.4637, the guanosine [1] was 0.7901 and the hypoxanthine [1] was 1.05. It also gave an indole [1] of 0.5756, an inosine [1] of 0.8159 and a 2_3-Diphosphoglyceric acid [1] of -0.06901. For the same compound, the 4-phosphopantothenate [1] was -0.2542, the 6-phospho-D-gluconate [1] was 0.0357 and the FMN [1] was -0.006391. The IMP [1] was 0.3439, the Pyrophosphate [1] was -0.1345 and the Sedoheptoluse bisphosphate [1] was -0.0261. It also gave a cyclic-AMP [1] of -0.1381, a glutathione disulfide [1] of -0.07054 and a lactate [1] of 0.415. For the same compound, the myo-inositol [1] was -0.225, the nicotinate [1] was 0.9606 and the ornithine [1] was 0.46. It also gave a phosphoenolpyruvate [1] of 0.911, a pyruvate [1] of 0.8605 and a ribose-phosphate [1] of 0.2278. The sarcosine/alanine [1] was 0.199, the sn-glycerol-3-phosphate [1] was 0.01743 and the succinate/methylmalonic acid [1] was 0.09628. It also gave a uridine [1] of 0.32 and a xanthosine [1] of 1.135.
Work on `CCOc1cc2c(cc1OCC)C(c1cc(OC)c(O)cc1Cl)NCC2` (stereo not drawn) [MMV008956] yielded an EC50 (P. falciparum) of 370 nM, an Acetyllysine [1] of -0.8944 and a N-acetyl-L-ornithine [1] of -0.5916. The N-carbamoyl-L-aspartate [1] was 0.571, the NADPH [1] was 0.6672 and the dAMP [1] was 1.243. It also gave a dCMP [1] of 4.619, a dTDP [1] of 1.146 and a dTMP [1] of 1.439. For the same compound, the dTTP [1] was 1.156, the dihydroorotate [1] was 1.1855 and the orotate [1] was -0.3284. It also gave a DLH [1] of -3.711, a DLS/SDL/SID [1] of -0.5828 and a PD [1] of -0.4938. For the same compound, the PEE [1] was -0.813, the PVNF [1] was -0.872 and the 3-phosphoglycerate [1] was 0.6004. The ADP-D-glucose [1] was 0.1393, the ATP [1] was 0.8747 and the CDP [1] was 1.061. For the same compound, the D-sedoheptulose-1/7-phosphate [1] was 0.1684, the FAD [1] was 0.6779 and the GMP [1] was -0.4979. The “NAD+” value [1] was 0.03875, the “NADP+” value [1] was 0.5626 and the “Octoluse Bisphosphate” value [1] was 0.08662. For the same compound, the Pyroglutamic acid [1] was 0.4321, the UDP-D-glucose [1] was 0.1438 and the UDP-D-glucuronate [1] was 0.2178. The UDP-N-acetyl-glucosamine [1] was 0.5265, the UDP [1] was 1.214 and the UMP [1] was 0.03068. The UTP [1] was 0.582, the a-ketoglutarate [1] was -0.2514 and the citrate/isocitrate [1] was -0.7004. The cytidine [1] was 0.5985, the dATP [1] was 0.6577 and the dGMP/AMP [1] was 0.5512. The fumarate [1] was -0.2713, the glucose-1/6-phosphate [1] was 2.3505 and the glycerate [1] was 0.6776. The guanine [1] was 0.5662, the guanosine [1] was -1.286 and the hypoxanthine [1] was 0.3973. The indole [1] was -0.009638, the inosine [1] was -0.3408 and the 2_3-Diphosphoglyceric acid [1] was 1.008. It also gave a 4-phosphopantothenate [1] of 0.721, a 6-phospho-D-gluconate [1] of 0.8262 and an FMN [1] of 0.6429. For the same compound, the IMP [1] was 0.4913, the Pyrophosphate [1] was -0.1587 and the Sedoheptoluse bisphosphate [1] was 0.3697. The cyclic-AMP [1] was 0.7848, the glutathione disulfide [1] was 0.5413 and the lactate [1] was 1.983. It also gave a myo-inositol [1] of 3.051, a nicotinate [1] of 0.3445 and an ornithine [1] of -0.06192. It also gave a phosphoenolpyruvate [1] of 0.186, a pyruvate [1] of 0.4759 and a ribose-phosphate [1] of 0.1544. For the same compound, the sarcosine/alanine [1] was -0.3792, the sn-glycerol-3-phosphate [1] was 0.3263 and the succinate/methylmalonic acid [1] was -0.2652. It also gave a uridine [1] of 0.5193 and a xanthosine [1] of -1.526.
